Tests used:
[1] = test system: A. ficuum 3-phytase; assay: 3-phytase assay with HPLC analysis; type: biochemical
Experimental: (§1) Referring now to FIGS. 2 through 5, the aforesaid exemplary probe according to the instant invention (compound 2 of FIG. 1) was employed in assays of 3-phytase and 6-phytase activity. The 3-phytase assay consisted of a solution combining A. ficuum 3-phytase (0.27 U) and the penta-ammonium salt of compound 2 (1.2 mM in glycine-HCl buffer 0.2M, pH 2.6, 3 mL). The 3-phytase assay was carried out at 37° C. The 6-phytase assay consisted of a solution combining wheat 6-phytase (0.27 U) and compound 2 (1.2 mM in sodium acetate buffer, 0.2M, pH 5.2, 3 mL). The 6-phytase assay was carried out at 50° C.
(§2) Control assays were similarly prepared but lacked the phytase enzyme. Assays were carried out in tinted vials, capped with septa and stirred continuously. Aliquot samples (30 μL) were taken and diluted with methanol-water (58:42, 970 μL) for HPLC analysis over the 24-hour time course of the assay.
(§3) Mobile phase (pH 4.0) was prepared by mixing methanol (580 mL), water (420 mL), tetrabutylammonium hydroxide (8 mL), 5N aqueous sulfuric acid (0.5 mL), and 6.4 mM aqueous phytic acid (0.2 mL). HPLC analysis was performed on an analytical HPLC system using a reversed phase column (Hamilton PRP-1, 5 μm, 150×4.6 mm). Compounds were quantified by the external standards method.

[2] = test system: wheat 6-phytase; assay: 6-phytase assay with HPLC analysis; type: biochemical; conditions: 0.27 U enzyme, 1.2 mM substrate, sodium acetate buffer 0.2M, pH 5.2, 50° C.
Experimental: as §1, §2, §3

- conversion of compound 2 to compound 7 (complete dephosphorylation) in the presence of 3-phytase ([1]; after 24 hours of incubation, 0.27 U enzyme, 1.2 mM substrate, glycine-HCl buffer 0.2M, pH 2.6, 37° C., HPLC): completely converted
- conversion in the enzyme free control ([1]; control lacking the phytase enzyme, 24 hours, glycine-HCl buffer pH 2.6, 37° C., HPLC): no conversion
- amide bond cleavage separating the UV chromophore from the phytic acid core (benzoic acid by HPLC) ([1]; in the assay and in the control): no benzoic acid could be detected
- substrate for 6-phytase (sequential dephosphorylation, HPLC) [2]: serves equally well as a substrate
SMILES: O=C(NCCCCCCOC1[C@@H](OP(=O)(O)O)[C@H](OP(=O)(O)O)C(OP(=O)(O)O)[C@H](OP(=O)(O)O)[C@H]1OP(=O)(O)O)c1ccccc1 (stereo partly drawn) [compound 2, 5-O-[6-(benzoylamino)hexyl]-D-myo-inositol-1,2,3,4,6-pentakisphosphate]
- rate limiting step of the production of compound 7 from compound 2 ([1]; 3-phytase, accumulation of the triphosphate, no significant diphosphate peak): conversion of triphosphate to diphosphate
